Each structure is given as a SMILES string.

This passage reports Ratio IC50 and IC50 results from ChEMBL document CHEMBL1159043, “Synthesis and hSERT activity of homotryptamine analogs. Part 6: [3+2] dipolar cycloaddition of 3-vinylindoles” (Bioorg Med Chem Lett, 2010).

Sodium-dependent serotonin transporter, sequence (P31645 whole entry): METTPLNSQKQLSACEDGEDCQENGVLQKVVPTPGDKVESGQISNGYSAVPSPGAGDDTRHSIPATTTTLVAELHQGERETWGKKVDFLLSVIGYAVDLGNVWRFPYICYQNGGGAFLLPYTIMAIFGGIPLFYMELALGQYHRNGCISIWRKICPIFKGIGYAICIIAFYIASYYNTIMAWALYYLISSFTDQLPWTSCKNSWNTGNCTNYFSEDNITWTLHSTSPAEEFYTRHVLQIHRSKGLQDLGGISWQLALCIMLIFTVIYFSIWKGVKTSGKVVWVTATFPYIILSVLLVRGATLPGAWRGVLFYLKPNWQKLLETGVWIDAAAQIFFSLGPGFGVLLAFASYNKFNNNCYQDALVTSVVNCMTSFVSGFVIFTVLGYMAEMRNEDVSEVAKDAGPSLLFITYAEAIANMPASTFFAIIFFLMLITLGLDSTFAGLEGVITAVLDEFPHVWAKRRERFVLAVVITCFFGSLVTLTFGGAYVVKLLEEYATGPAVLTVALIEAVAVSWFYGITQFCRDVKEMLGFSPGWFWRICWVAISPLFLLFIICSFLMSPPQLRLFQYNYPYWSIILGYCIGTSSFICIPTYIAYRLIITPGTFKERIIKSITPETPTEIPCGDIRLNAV

The species named for the first assay is Homo sapiens. In words: Selectivity ratio of IC50 for human NET to IC50 for human SERT.
`CN1CCc2ccccc2C1CCc1c[nH]c2ccc(C#N)cc12` (single isomer, unassigned; (-)) [listing 1 of 2 here]: the Ratio IC50 is > 20000.

The species entered for the next assay is Homo sapiens. Description: Selectivity ratio of IC50 for human DAT to IC50 for human SERT.
Turning to `CN1CCc2ccccc2C1CCc1c[nH]c2ccc(C#N)cc12` (single isomer, unassigned; (-)) [listing 1 of 2 here], the Ratio IC50 came out at 1500.

The next assay addresses Sodium-dependent serotonin transporter (Homo sapiens, UniProt P31645). Description: Displacement of [I125]RTI-55 from human SERT transfected in human HEK293 cells. It counts as cell-based.
The compound `N#Cc1ccc2[nH]cc(CCC3CCCCN3CCC(F)(F)F)c2c1` (configuration not stated) displayed an IC50 of 80 nM.
The compound `CN1CC[C@H](Cc2ccccc2)C[C@@H]1CCc1c[nH]c2ccc(C#N)cc12` returned an IC50 of 7.6 nM.
On the same count and under the same terms, the value for `CN1CCc2ccccc2C1CCc1c[nH]c2ccc(C#N)cc12` (stereo in doubt; 21a) was 1.1 nM; that for `CN1CCOCC1CCc1c[nH]c2ccc(C#N)cc12` (configuration not stated) was 76 nM; that for `N#Cc1ccc2[nH]cc(CCC3CCCCN3)c2c1` (configuration not stated) was 2.5 nM.
`CCN1CCCCC1CCc1c[nH]c2ccc(C#N)cc12` (configuration not stated) displayed a half-inhibitory concentration (IC50) of 4 nM.
Still for that read-out and setting: the value for `COc1ccc2[nH]cc(CCC3c4ccccc4CCN3C)c2c1` (configuration not stated) was 120 nM.
On the same count and under the same terms, next, `CN1CCc2ccccc2C1CCc1c[nH]c2ccc(C#N)cc12` (single isomer, unassigned; (+)): 4.2 nM; `CN1CCCCC1(C)CCc1c[nH]c2ccc(C#N)cc12` (configuration not stated): 2.1 nM.
Regarding `CN1CCCC1CCc1c[nH]c2ccc(C#N)cc12` (configuration not stated), the IC50 amounted to 8.1 nM.
For `N#Cc1ccc2[nH]cc(CCC3CCCCN3Cc3cc(C(F)(F)F)cc(C(F)(F)F)c3)c2c1` (configuration not stated), the IC50 turned out to be 46 nM.
The compound `N#Cc1ccc2[nH]cc(CCC3CCCN3)c2c1` (configuration not stated) registered an IC50 of 17 nM.
Consider `CN1CCc2ccccc2C1CCc1c[nH]c2ccc(C#N)cc12` (single isomer, unassigned; (-)) [listing 2 of 2 here], for which the IC50 turned out to be 0.42 nM.
For `CC1(CCc2c[nH]c3ccc(C#N)cc23)CCCCN1` (configuration not stated), the IC50 amounted to 17 nM.
`CN1CCCCC1CCc1c[nH]c2ccc(C#N)cc12` (configuration not stated) returned an IC50 of 3.9 nM.
Compound `CN1CCc2ccccc2C1CCc1c[nH]c2ccc(F)cc12` (configuration not stated) showed an IC50 of 5.7 nM.
`N#Cc1ccc2[nH]cc(CC[C@H]3C[C@@H](Cc4ccccc4)CCN3)c2c1` yielded an IC50 of 18 nM.
For the compound `N#Cc1ccc2[nH]cc(CCC3CCCCN3Cc3ccccc3)c2c1` (configuration not stated), the IC50 came to 7 nM.

The target of the next assay is Sodium-dependent dopamine transporter (Homo sapiens, UniProt Q01959). Description: Displacement of [I125]RTI-55 from human DAT transfected in human HEK293 cells. The format is cell-based.
Sodium-dependent dopamine transporter, sequence (Q01959 whole entry): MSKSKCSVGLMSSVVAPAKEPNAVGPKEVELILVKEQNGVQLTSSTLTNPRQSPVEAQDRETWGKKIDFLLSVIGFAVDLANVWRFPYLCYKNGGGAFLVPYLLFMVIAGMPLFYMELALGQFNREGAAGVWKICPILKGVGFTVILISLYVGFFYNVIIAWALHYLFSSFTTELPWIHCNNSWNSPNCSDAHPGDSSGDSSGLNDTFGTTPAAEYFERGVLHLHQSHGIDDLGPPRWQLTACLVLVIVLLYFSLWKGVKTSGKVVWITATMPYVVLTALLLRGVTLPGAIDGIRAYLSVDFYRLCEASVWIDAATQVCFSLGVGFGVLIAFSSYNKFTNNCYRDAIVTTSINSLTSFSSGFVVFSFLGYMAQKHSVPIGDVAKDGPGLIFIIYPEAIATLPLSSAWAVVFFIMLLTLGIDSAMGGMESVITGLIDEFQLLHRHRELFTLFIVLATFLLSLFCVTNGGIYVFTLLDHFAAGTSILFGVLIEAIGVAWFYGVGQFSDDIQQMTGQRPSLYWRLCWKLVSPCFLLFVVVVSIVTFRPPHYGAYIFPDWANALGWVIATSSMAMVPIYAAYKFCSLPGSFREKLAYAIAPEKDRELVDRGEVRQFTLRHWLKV
Compound `CN1CCc2ccccc2C1CCc1c[nH]c2ccc(C#N)cc12` (single isomer, unassigned; (-)) [listing 2 of 2 here] had an IC50 of 620 nM.

For the next assay, the target named is Sodium-dependent noradrenaline transporter (Homo sapiens, UniProt P23975). Description: Displacement of [125I]nisoxetine from human NET transfected in human HEK293 cells. It counts as cell-based.
Sodium-dependent noradrenaline transporter, sequence (P23975 whole entry): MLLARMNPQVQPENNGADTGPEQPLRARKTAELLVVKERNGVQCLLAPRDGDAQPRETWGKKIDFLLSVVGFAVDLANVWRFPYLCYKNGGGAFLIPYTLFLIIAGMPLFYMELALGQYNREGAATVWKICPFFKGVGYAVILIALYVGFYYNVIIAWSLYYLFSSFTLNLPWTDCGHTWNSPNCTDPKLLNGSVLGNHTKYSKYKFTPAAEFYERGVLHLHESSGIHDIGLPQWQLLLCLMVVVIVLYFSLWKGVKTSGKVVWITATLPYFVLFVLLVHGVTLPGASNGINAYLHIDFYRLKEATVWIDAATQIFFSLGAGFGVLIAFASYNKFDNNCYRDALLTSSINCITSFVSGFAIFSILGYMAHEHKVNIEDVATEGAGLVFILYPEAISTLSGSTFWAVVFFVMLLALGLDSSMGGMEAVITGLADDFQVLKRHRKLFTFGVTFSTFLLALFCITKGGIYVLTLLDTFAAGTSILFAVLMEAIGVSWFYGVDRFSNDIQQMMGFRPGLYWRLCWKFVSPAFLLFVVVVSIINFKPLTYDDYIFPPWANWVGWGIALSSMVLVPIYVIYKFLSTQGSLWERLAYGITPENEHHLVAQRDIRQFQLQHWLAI
`CN1CCc2ccccc2C1CCc1c[nH]c2ccc(C#N)cc12` (single isomer, unassigned; (-)) [listing 2 of 2 here]: the IC50 is > 10000 nM.

The term IC50 denotes the midpoint of a concentration-inhibition curve.
